Reference: patent US8513260B2, “Pyrazinylpyrazoles” (Bayer CropScience AG, priority 2009, dated 2013)
Read-outs that look alike come from different tables or passages of the source.

Legend:
[1] = test system: red spider mite (Tetranychus urticae); test: Tetranychus test, OP-resistant (TETRUR spray treatment); type: in vivo; conditions: bean leaf discs, after 6 days
Method: Tetranychus Test, OP-Resistant (TETRUR Spray Treatment)
Solvent: 78.0 parts by weight of acetone • • 1.5 parts by weight of dimethylformamide
Emulsifier: 0.5 part by weight of alkylaryl polyglycol ether
To prepare an appropriate active ingredient preparation, 1 part by weight of active ingredient is mixed with the stated amounts of solvent and emulsifier, and the concentrate is diluted with emulsifier-containing water to the desired concentration. Discs of bean leaves (Phaseolus vulgaris) infested by all stages of the red spider mite (Tetranychus urticae) are sprayed with an active ingredient preparation of the desired concentration. After 6 days, the efficacy in % is determined. 100% means that all spider mites have been killed; 0% means that none of the spider mites have been killed.

[2] = logP by HPLC on reversed-phase columns (C 18), EEC Directive 79/831 Annex V.A8; type: physicochemical; conditions: for chromatographic logP: reversed-phase C18 HPLC column, read-out: log P
Source text: [table] The calibration is effected with unbranched alkan-2-ones (having 3 to 16 carbon atoms) with known logP values (logP values determined on the basis of the retention times by linear interpolation between two successive alkanones).

[3] = test system: larvae of the mustard beetle (Phaedon cochleariae); test: Phaedon test (PHAECO spray treatment); type: in vivo; conditions: Chinese cabbage discs, after 7 days; for efficacy: 500 g/ha; for pest or weed control at 500 g/ha: Phaedon cochleariae, 168 h, read-out: efficacy
Method: Phaedon Test ([…] Spray Treatment) Solvent: 78.0 parts by weight of acetone • • 1.5 parts by weight of dimethylformamide Emulsifier: 0.5 part by weight of alkylaryl polyglycol ether To prepare an appropriate active ingredient preparation, 1 part by weight of active ingredient is mixed with the stated amounts of solvent and emulsifier, and the concentrate is diluted with emulsifier-containing water to the desired concentration. Discs of Chinese cabbage (Brassica pekinensis) are sprayed with an active ingredient preparation of the desired concentration and, after drying, populated with larvae of the mustard beetle (Phaedon cochleariae). After 7 days, the efficacy in % is determined. 100% means that all beetle larvae have been killed; 0% means that none of the beetle larvae have been killed.

[4] = test system: caterpillars of the armyworm (Spodoptera frugiperda); test: Spodoptera frugiperda test (SPODFR spray treatment); type: in vivo; conditions: maize leaf discs, after 7 days; for efficacy: 500 g/ha; for pest or weed control at 500 g/ha: Spodoptera frugiperda, foliar, 168 h, read-out: efficacy
Method: Spodoptera frugiperda Test (SPODFR Spray Treatment) Solvent: 78.0 parts by weight of acetone • • 1.5 parts by weight of dimethylformamide Emulsifier: 0.5 part by weight of alkylaryl polyglycol ether To prepare an appropriate active ingredient preparation, 1 part by weight of active ingredient is mixed with the stated amounts of solvent and emulsifier, and the concentrate is diluted with emulsifier-containing water to the desired concentration. Discs of maize leaves (Zea mays) are sprayed with an active ingredient preparation of the desired concentration and, after drying, populated with caterpillars of the armyworm (Spodoptera frugiperda). After 7 days, the efficacy in % is determined. 100% means that all caterpillars have been killed; 0% means that none of the caterpillars have been killed.

Boophilus microplus = Boophilus microplus test (BOOPMI injection); type: in vivo; conditions: 20 μg animal; injection into the abdomen; after 7 days, laying of fertile eggs
Method: Boophilus microplus Test (BOOPMI Injection) Solvent: dimethyl sulphoxide To prepare an appropriate active ingredient formulation, 10 mg of active ingredient are mixed with 0.5 ml of solvent and the concentrate is diluted with solvent to the desired concentration. The active ingredient solution is injected into the abdomen (Boophilus microplus), and the animals are transferred into dishes and stored in a climate-controlled room. The efficacy is assessed by laying of fertile eggs. After 7 days, the efficacy in % is determined. 100% means that none of the ticks has laid any fertile eggs.

[5] = pH 2.7, * LC-MS, acidic range pH 2.7, 0.1% aqueous formic acid and acetonitrile
[6] = * LC-MS, acidic range pH 2.7, 0.1% aqueous formic acid and acetonitrile

chromatographic logP [2, 5]	SMILES	efficacy ([1]; 500 g/ha)	efficacy [3]	efficacy [4]	other results
	C=C(C)CNc1c(-c2cc(Cl)cc(C(F)(F)F)c2)c(C(F)(F)F)nn1-c1nccnc1OC [Ex. 96]	100%			
4.17	COc1nccnc1-n1nc(C(F)(F)C(F)(F)F)c(-c2ccc(Cl)cn2)c1N [Ex. 54]				
3.14	COc1nccnc1-n1nc(C(F)(F)C(F)(F)F)c(-c2ccc(Cl)nc2)c1N [Ex. 58]				
3.55	COc1nccnc1-n1nc(C(F)(F)F)c(-c2ccc(Cl)cn2)c1N [Ex. 53]				
	COc1nccnc1-n1nc(C(F)(F)F)c(-c2cc(Cl)cc(C(F)(F)F)c2)c1N(C)C [compound 107, 1-(3-methoxypyrazin-2-yl)-4-[3-chloro-5-(trifluoromethyl)phenyl]-3-(trifluoromethyl)-1H-pyrazole-5-dimethylamine]		83%		log P [2, 6]: 5.11*
	COc1cc(-c2c(C(F)(F)F)nn(-c3nccnc3OC)c2N)ccc1OCC(F)(F)F [Ex. 125]	90%	100%		
3	COc1nccnc1-n1nc(C(F)(F)F)c(-c2ccccc2Br)c1N [Ex. 137]				
3.09	COc1nccnc1-n1nc(C(F)(F)F)c(-c2ccccc2I)c1N [Ex. 138]				
	CCOc1nccnc1-n1nc(C(F)(F)F)c(-c2cc(Cl)cc(C(F)(F)F)c2)c1N(Cc1ccc(OC)cc1)Cc1ccc(OC)cc1 [Ex. 43]		100%	100%	
	Nc1c(-c2cc(Cl)cc(C(F)(F)F)c2)c(C(F)(F)F)nn1-c1nccnc1C(F)(F)F [Ex. 130]		100%	100%	
	COc1nccnc1-n1nc(C(F)(F)F)c(-c2cc(F)c(OC)c(Cl)c2)c1N [Ex. 124]	90%	100%	100%	log P ([2]; *** LC-MS, neutral range pH 7.8, 0.001 molar aqueous ammonium hydrogencarbonate and acetonitrile): 3.5***;
	CCOc1nccnc1-n1nc(C(F)(F)F)c(-c2cc(Cl)cc(C(F)(F)F)c2)c1N(Cc1ccccc1)Cc1ccccc1 [Ex. 34]				log P [2, 6]: 7*
	COc1nccnc1-n1nc(C(F)(F)C(F)F)c(-c2cc(Cl)c3c(c2)OCO3)c1N [Ex. 65]	90%	100%	100%	
	COc1nccnc1-n1nc(C(F)(F)F)c(-c2cc(Cl)c(Cl)c(C(F)(F)F)c2)c1N [Ex. 86]		100%	100%	
2.86	COc1nccnc1-n1nc(C(F)(F)F)c(-c2cc3c(cc2Cl)OCO3)c1N [Ex. 143]				
	COc1nccnc1-n1nc(C(F)(F)F)c(-c2cc(Cl)c(N(C)C)c(Cl)c2)c1N [Ex. 121]		100%	100%	efficacy ([1]; 100 g/ha): 80%
	CCOc1nccnc1-n1nc(C(F)(F)F)c(-c2cc(Cl)cc(C(F)(F)F)c2)c1NCc1ccccc1 [Ex. 35]	90%			
4.35	COc1nccnc1-n1nc(C(F)(F)F)c(-c2cc(Cl)c(Cl)c(Cl)c2)c1N [Ex. 87]				pest or weed control at 500 g/ha [4]: 100%; pest or weed control at 500 g/ha [3]: 100%
2.94	COc1nccnc1-n1nc(C(F)(F)F)c(-c2ncc(Cl)cc2Cl)c1N [Ex. 52]				pest or weed control at 500 g/ha [3]: 100%
2.19	COc1nccnc1-n1nc(C(F)(F)F)c(-c2cccnc2Cl)c1N [Ex. 57]				
2.66	CCc1nn(-c2nccnc2OC)c(N)c1-c1cc(Cl)c(OC)c(OC)c1 [Ex. 161]				pest or weed control at 500 g/ha [4]: 100%; pest or weed control at 500 g/ha [3]: 100%
	CCOc1cc(-c2c(C(F)(F)F)nn(-c3nccnc3OC)c2N)cc(Cl)c1OCC(F)(F)F [Ex. 144]	100%	100%	100%	
	COc1cc(-c2c(C(F)(F)C(F)F)nn(-c3nccnc3OC)c2N)cc(C(F)(F)F)c1OC [Ex. 157]	100%	100%	100%	
	COc1nccnc1-n1nc(C(F)(F)C(F)F)c(-c2cc(Cl)c(Cl)c(Cl)c2)c1N [Ex. 116]	90%	100%	100%	

chromatographic logP [2, 5]	SMILES	efficacy ([1]; 500 g/ha)	efficacy [3]	efficacy [4]	other results
	COc1nccnc1-n1nc(C(F)(F)F)c(-c2ccc(N(C)C)c(Cl)c2)c1N [Ex. 122]		100%	100%	
3.03	CCOc1nccnc1-n1nc(CC)c(-c2cc(Br)c3c(c2)OCO3)c1N [Ex. 177]				
	CCOc1cc(-c2c(C(F)(F)F)nn(-c3nccnc3OC)c2N)ccc1OCC(F)(F)F [Ex. 127]	90%	100%		
	COc1nccnc1-n1nc(C(F)(F)F)c(-c2cc(F)c(Cl)cc2Cl)c1N [Ex. 166]	90%	100%		
	CCC(OC)c1nn(-c2nccnc2OC)c(N)c1-c1ccc(Cl)c(Cl)c1 (centres unmarked) [Ex. 3]	100%	100%		efficacy (Boophilus microplus): 100%
3.47	COc1cc(-c2c(C(F)(F)F)nn(-c3nccnc3OC)c2N)cc(I)c1OC [Ex. 147]				
	CCOc1cc(-c2c(C(F)(F)F)nn(-c3nccnc3OC)c2N)cc(Br)c1OCC(F)(F)F [Ex. 140]		100%	100%	log P [2, 6]: 4.3*
	CCCOc1nccnc1-n1nc(C(F)(F)F)c(-c2ccc(Br)cc2)c1N [Ex. 4]				pest or weed control at 500 g/ha ([1]; Tetranychus urticae, foliar, 144 h, 500 g/ha, read-out: efficacy): 90%; chromatographic logP ([2]; pH 2.3, ** acidic range pH 2.3, 0.1% aqueous phosphoric acid and acetonitrile): 4.11; pest or weed control at 500 g/ha [3]: 83%
	COc1nccnc1-n1nc(C(F)(F)C(F)F)c(-c2cc(Cl)c3c(c2)CCO3)c1N [Ex. 66]	90%	100%	100%	
	N#Cc1nccnc1-n1nc(C(F)(F)F)c(-c2cc(Cl)cc(C(F)(F)F)c2)c1N [Ex. 27]		100%		
3.31	COc1nccnc1-n1nc(C(F)(F)F)c(-c2c(F)ccc(Cl)c2Cl)c1N [Ex. 142]				pest or weed control at 500 g/ha [3]: 100%
	COc1nccnc1-n1nc(C(F)(F)F)c(-c2cc3c(c(C(F)(F)F)c2)OCCO3)c1N [Ex. 173]	90%	100%	100%	
2.59	COc1nccnc1-n1nc(C(F)(F)F)c(-c2ccccn2)c1N [Ex. 49]				
	CC(C)Oc1nccnc1-n1nc(C(F)(F)F)c(-c2cc(Cl)cc(C(F)(F)F)c2)c1N [Ex. 13]		83%		
	COc1cc(-c2c(C(F)(F)F)nn(-c3nccnc3OC)c2N)cc(Cl)c1OCC(F)(F)F [Ex. 134]		100%	100%	
2.87	COc1ccc(-c2c(C(F)(F)F)nn(-c3nccnc3OC)c2N)c(Br)c1OC [Ex. 128]				
	Nc1c(-c2cc(Cl)cc(C(F)(F)F)c2)c(C(F)(F)F)nn1-c1nccnc1-n1ccnc1 [Ex. 44]		100%	100%	
2.65	CCc1nn(-c2nccnc2OC)c(N)c1-c1cc(Br)c2c(c1)OCO2 [Ex. 178]				
	Cc1nccnc1-n1nc(C(F)(F)F)c(-c2cc(Cl)cc(C(F)(F)F)c2)c1N [Ex. 23]	100%	100%		
	COc1cc(-c2c(C(F)(F)F)nn(-c3nccnc3OC)c2N)cc(I)c1OC [Ex. 176]				log P [2, 6]: 3.87*
	COc1nccnc1-n1nc(C(F)(F)F)c(-c2cc(Cl)c(N(C)C)c(C(F)(F)F)c2)c1N [Ex. 123]	80%	100%	100%	
2.62	COc1nccnc1-n1nc(C(F)(F)F)c(-c2cncc(Br)c2)c1N [Ex. 50]				
2.79	COc1nccnc1-n1nc(C2CC2)c(-c2cc(Cl)c3c(c2)OCO3)c1N [Ex. 79]				pest or weed control at 500 g/ha [4]: 100%; pest or weed control at 500 g/ha [3]: 100%
	COc1nccnc1-n1nc(C(F)(F)F)c(-c2ccc3c(c2)CCC(C)(C)O3)c1N [Ex. 145]		100%		
